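Five concentrations, 48 hours, 96-well plates. GI50 is the concentration that inhibits growth by half.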 The source made the active and inactive calls. Cut-off read from the data, not from the text of the source: active = GI50 up to about 1.1 µM and inactive = higher.
Key:
Assay in all cases: NCI tumour cell line growth inhibition, 48 h
SF-539 = system: SF-539
HOP-92 = system: HOP-92
OVCAR-5 = system: OVCAR-5
M14 = system: M14
TK-10 = system: TK-10
HCC 2998 = system: HCC 2998
NCI/ADR-RES = system: NCI/ADR-RES
U-251 = system: U-251
A549 = system: A549
SK-MEL-2 = system: SK-MEL-2
MDA-MB-231 = system: MDA-MB-231
COLO 205 = system: COLO 205
BT-549 = system: BT-549
SF-295 = system: SF-295
LOX IMVI = system: LOX IMVI
SK-OV-3 = system: SK-OV-3
RXF 393 = system: RXF 393
NCI-H226 = system: NCI-H226
UACC-62 = system: UACC-62
SNB-75 = system: SNB-75

Structure (SMILES) | GI50 (SF-539) | GI50 (HOP-92) | GI50 (OVCAR-5) | GI50 (M14) | GI50 (TK-10) | GI50 (HCC 2998) | GI50 (NCI/ADR-RES) | GI50 (U-251) | GI50 (A549) | GI50 (SK-MEL-2) | GI50 (MDA-MB-231) | GI50 (COLO 205) | GI50 (BT-549) | GI50 (SF-295) | GI50 (LOX IMVI) | GI50 (SK-OV-3) | GI50 (RXF 393) | GI50 (NCI-H226) | GI50 (UACC-62) | GI50 (SNB-75)
CC1(C)N=C(N)N=C(N)N1c1ccc(CCCCc2ccc(Cl)cc2Cl)cc1 | 0.929 µM (active) | 4.08 µM (inactive) | 4.31 µM (inactive) | 0.914 µM (active) | 3.13 µM (inactive) | 0.451 µM (active) | 93.5 µM (inactive) | 0.245 µM (active) | 0.335 µM (active) | 0.887 µM (active) | 2.07 µM (inactive) | 0.927 µM (active) | 1.85 µM (inactive) | 0.893 µM (active) | 0.417 µM (active) | 0.746 µM (active) | 0.891 µM (active) |  |  | 
N#CC(C#N)=NNc1ccc2cn[nH]c2c1 | 70.8 µM (inactive) | 37.1 µM (inactive) | > 100 µM (inactive) | 35.6 µM (inactive) | 26.7 µM (inactive) |  | > 100 µM (inactive) | > 100 µM (inactive) | > 100 µM (inactive) | > 100 µM (inactive) | > 100 µM (inactive) | 25.6 µM (inactive) | > 100 µM (inactive) | > 100 µM (inactive) | 31.4 µM (inactive) | > 100 µM (inactive) | 26.6 µM (inactive) | > 100 µM (inactive) | > 100 µM (inactive) | 
COc1ccc(O[C@H](CO)C[C@@H]2COC(C)(C)O2)cc1 | > 100 µM (inactive) |  | > 100 µM (inactive) | > 100 µM (inactive) | > 100 µM (inactive) | > 100 µM (inactive) | > 100 µM (inactive) | > 100 µM (inactive) | > 100 µM (inactive) | > 100 µM (inactive) | > 100 µM (inactive) | > 100 µM (inactive) | > 100 µM (inactive) | > 100 µM (inactive) | > 100 µM (inactive) | > 100 µM (inactive) | > 100 µM (inactive) | > 100 µM (inactive) | > 100 µM (inactive) | > 100 µM (inactive)
O=C(Nc1sccc1S(=O)(=O)c1ccc(Cl)cc1)c1ccc(Cl)cc1Cl | > 100 µM (inactive) | > 93.1 µM (inactive) | > 84.5 µM (inactive) | > 100 µM (inactive) | > 100 µM (inactive) |  | > 100 µM (inactive) | > 78.7 µM (inactive) | > 95.7 µM (inactive) | > 100 µM (inactive) | > 100 µM (inactive) | > 100 µM (inactive) | > 100 µM (inactive) | 37.8 µM (inactive) | > 74.6 µM (inactive) | > 100 µM (inactive) | > 100 µM (inactive) | > 100 µM (inactive) | > 62.2 µM (inactive) | > 100 µM (inactive)
C=CCc1c(O)c2ccccc2[nH]c1=O | > 100 µM (inactive) | > 100 µM (inactive) | > 100 µM (inactive) |  | > 100 µM (inactive) | > 100 µM (inactive) | > 100 µM (inactive) | > 100 µM (inactive) | > 100 µM (inactive) |  | > 100 µM (inactive) | > 100 µM (inactive) | > 100 µM (inactive) | > 100 µM (inactive) | > 100 µM (inactive) |  |  | > 100 µM (inactive) |  | > 100 µM (inactive)
Cc1ccc(C(=O)Oc2ccc(/C=C3\CCC/C(=C\c4ccc(OC(=O)c5ccc(C)cc5)cc4)C3=O)cc2)cc1 | > 100 µM (inactive) | > 100 µM (inactive) | > 100 µM (inactive) | > 100 µM (inactive) | > 100 µM (inactive) | > 100 µM (inactive) | > 100 µM (inactive) | > 100 µM (inactive) | > 100 µM (inactive) | > 100 µM (inactive) | > 100 µM (inactive) | > 100 µM (inactive) | > 100 µM (inactive) | > 100 µM (inactive) | > 100 µM (inactive) |  |  |  | > 100 µM (inactive) | 79.8 µM (inactive)
CCOC(=O)c1c(CN2CCCC2)n(-c2ccccc2)c2cc(Br)c(O)cc12 |  | 20 µM (inactive) | 19.1 µM (inactive) | 15.5 µM (inactive) | 20.5 µM (inactive) |  | 22.4 µM (inactive) | 16.3 µM (inactive) | 16 µM (inactive) | 18.3 µM (inactive) | 17.8 µM (inactive) | 10.5 µM (inactive) | 36.1 µM (inactive) | 16.6 µM (inactive) | 16 µM (inactive) | 25.8 µM (inactive) | 12.4 µM (inactive) |  | 16.7 µM (inactive) | 15.3 µM (inactive)
COc1ccc(CC/N=C2\OCc3ccccc32)cc1OC | 20.7 µM (inactive) | 31.2 µM (inactive) |  |  | > 100 µM (inactive) | > 100 µM (inactive) | 67 µM (inactive) | > 100 µM (inactive) | 46.3 µM (inactive) | 51.2 µM (inactive) | 61.8 µM (inactive) | 49.3 µM (inactive) | > 100 µM (inactive) | 33.3 µM (inactive) | 41.2 µM (inactive) | 30.5 µM (inactive) |  | 51.3 µM (inactive) | 29.2 µM (inactive) | 68.2 µM (inactive)
Fc1cccc(F)c1C1SCC2=Nc3ccccc3CN21 (configuration not stated) | 26.7 µM (inactive) | 71.8 µM (inactive) | 56 µM (inactive) | 91.2 µM (inactive) | > 100 µM (inactive) | > 100 µM (inactive) | 22.4 µM (inactive) | > 100 µM (inactive) | 63 µM (inactive) |  | > 100 µM (inactive) | > 100 µM (inactive) | 98.6 µM (inactive) | 38.1 µM (inactive) | > 100 µM (inactive) | 36.8 µM (inactive) | 23.9 µM (inactive) |  | 41 µM (inactive) | 18.7 µM (inactive)
Oc1[nH]c(Nc2ccc(F)c(Cl)c2)nc2ncnc1-2 | > 100 µM (inactive) | > 100 µM (inactive) | > 100 µM (inactive) | > 100 µM (inactive) | > 100 µM (inactive) | > 100 µM (inactive) | > 100 µM (inactive) | 99.1 µM (inactive) | > 100 µM (inactive) | > 100 µM (inactive) | > 100 µM (inactive) | > 100 µM (inactive) | > 100 µM (inactive) | > 100 µM (inactive) | > 100 µM (inactive) | > 100 µM (inactive) |  | > 100 µM (inactive) | > 100 µM (inactive) | 25.9 µM (inactive)
COC(=O)c1ccc(OCc2ccc3nc(-c4ccccc4)c(Cl)nc3c2)cc1 | 33.1 µM (inactive) | 28.1 µM (inactive) | > 100 µM (inactive) | > 100 µM (inactive) | 58.2 µM (inactive) | > 100 µM (inactive) | 65.2 µM (inactive) | 27.7 µM (inactive) | 86.9 µM (inactive) | 84.7 µM (inactive) | 23.2 µM (inactive) | 76.2 µM (inactive) | > 100 µM (inactive) | 46 µM (inactive) | > 100 µM (inactive) |  |  |  | > 100 µM (inactive) | 22.9 µM (inactive)
Cn1nc2c(c1N)Cc1c(nn(C)c1N)-c1ccccc1-2 | > 100 µM (inactive) | > 100 µM (inactive) | > 100 µM (inactive) | > 100 µM (inactive) | > 100 µM (inactive) | > 100 µM (inactive) | > 100 µM (inactive) | > 100 µM (inactive) | > 100 µM (inactive) | > 100 µM (inactive) | > 100 µM (inactive) | > 100 µM (inactive) | > 100 µM (inactive) | > 100 µM (inactive) | > 100 µM (inactive) | > 100 µM (inactive) | > 100 µM (inactive) | > 100 µM (inactive) | > 100 µM (inactive) | 
NCCNc1ncnc2ccc(Cl)cc12 |  | 93.5 µM (inactive) | > 100 µM (inactive) | > 100 µM (inactive) | 28.6 µM (inactive) |  | > 100 µM (inactive) | > 100 µM (inactive) | 93.8 µM (inactive) | > 100 µM (inactive) | 93.1 µM (inactive) | 49.3 µM (inactive) | > 100 µM (inactive) | > 100 µM (inactive) | > 100 µM (inactive) | > 100 µM (inactive) | > 100 µM (inactive) | > 100 µM (inactive) | 93.5 µM (inactive) | 97.5 µM (inactive)
CC1CC(OP(=O)(OCc2ccccc2)OCc2ccccc2)[C@@H](OCc2ccccc2)C(OCc2ccccc2)C1OCc1ccccc1 (some centres not stated) | > 100 µM (inactive) |  | > 100 µM (inactive) | > 100 µM (inactive) | 22.2 µM (inactive) | > 100 µM (inactive) | > 100 µM (inactive) | 20.1 µM (inactive) | 24.7 µM (inactive) | > 100 µM (inactive) | > 100 µM (inactive) | > 100 µM (inactive) | 79.3 µM (inactive) | 75.5 µM (inactive) | > 100 µM (inactive) | > 100 µM (inactive) | 0.0555 µM (active) | > 100 µM (inactive) | > 100 µM (inactive) | 39.5 µM (inactive)
CCOC(=O)NC(Nc1ccc(C(=O)OCC)cc1)(C(F)(F)F)C(F)(F)F | > 100 µM (inactive) | > 100 µM (inactive) | 79.8 µM (inactive) | > 100 µM (inactive) | > 100 µM (inactive) | > 100 µM (inactive) | > 100 µM (inactive) | 68.1 µM (inactive) | 50.9 µM (inactive) |  | > 100 µM (inactive) | > 100 µM (inactive) | > 100 µM (inactive) | > 100 µM (inactive) | 4.26 µM (inactive) | > 100 µM (inactive) |  | > 100 µM (inactive) | 13.1 µM (inactive) | > 100 µM (inactive)

From ChEMBL document CHEMBL1201862, “PubChem BioAssay data set” (2004)
